This passage reports Ki results from patent US10047098B2, “C5-C6-oxacyclic fused iminopyrimidinone compounds as bace inhibitors, compositions, and their use” (Merck Sharp & Dohme Corp., priority 2014, dated 2018).

The target of assay [1] is purified human autoBACE-2 (Homo sapiens (Human), UniProt Q9Y5Z0). Nature of the assay: BACE-2 Assay (BACE-HTRF assay). Type of assay: biochemical. The following applies: Ki calculated from IC50 using the Cheng-Prusoff equation; QSY7-EISEVNLDAEFC-Eu-amide substrate, pH 5.0. A digest of the protocol:
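Endpoint proteolysis of a QSY7/europium FRET peptide by purified human autoBACE-2, 5% DMSO final, read by time-resolved fluorescence at 620 nm after 320 nm excitation.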

Assay [2] addresses Recombinant human soluble BACE1 catalytic domain (Homo sapiens (Human), UniProt P56817). The assay can be described thus: BACE1 HTRF FRET Assay. Type of assay: biochemical. The following applies: Ki calculated from IC50 using the Cheng-Prusoff equation; QSY7-APPswe-Eu substrate, pH 5.0; read-out: BACE-1 Ki. The procedure, abridged:
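Purified BACE1 catalytic domain (3 nM as added) is preincubated with inhibitor for 30 min at 30 °C in 20 mM Na-acetate pH 5.0, 10% glycerol, 0.1% Brij-35, 7.5% DMSO. QSY7-APP^swe-Eu substrate (200 nM final) is then cleaved for 1.5 h at 30 °C and read as time-resolved 620 nm fluorescence. IC50s come from nonlinear regression, and Ki from Cheng-Prusoff using substrate Km 8 μM.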

Chain of Recombinant human soluble BACE1 catalytic domain (P56817 75-416): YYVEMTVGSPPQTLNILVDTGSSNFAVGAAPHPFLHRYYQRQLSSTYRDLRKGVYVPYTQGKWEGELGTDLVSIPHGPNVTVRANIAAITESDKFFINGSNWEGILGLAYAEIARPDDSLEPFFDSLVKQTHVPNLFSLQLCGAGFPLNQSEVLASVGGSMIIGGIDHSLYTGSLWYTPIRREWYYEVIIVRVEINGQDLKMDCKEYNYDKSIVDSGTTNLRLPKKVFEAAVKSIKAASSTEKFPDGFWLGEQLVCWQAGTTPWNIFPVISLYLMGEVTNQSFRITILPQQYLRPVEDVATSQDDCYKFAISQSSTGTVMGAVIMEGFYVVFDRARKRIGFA
Chain of purified human autoBACE-2 (Q9Y5Z0 63-473 limits assumed): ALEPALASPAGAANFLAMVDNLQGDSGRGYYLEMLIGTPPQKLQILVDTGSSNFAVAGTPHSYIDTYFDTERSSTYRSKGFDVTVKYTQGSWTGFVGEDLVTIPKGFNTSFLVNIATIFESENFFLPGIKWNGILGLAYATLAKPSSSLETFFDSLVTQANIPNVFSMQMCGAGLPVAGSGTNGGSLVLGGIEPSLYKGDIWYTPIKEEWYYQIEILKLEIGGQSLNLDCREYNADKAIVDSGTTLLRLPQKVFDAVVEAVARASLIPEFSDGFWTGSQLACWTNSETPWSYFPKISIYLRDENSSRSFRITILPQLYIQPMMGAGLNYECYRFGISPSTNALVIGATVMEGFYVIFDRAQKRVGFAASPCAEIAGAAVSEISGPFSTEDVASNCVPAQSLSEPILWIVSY

Regarding `COC[C@H]1C[C@H]2C(=O)N(C)C(=N)N[C@@]2(c2cc(OCC3CC3)ccc2F)CO1` [Example 90, (4aR,6R,8aS)-8a-(5-(cyclopropylmethoxy)-2-fluorophenyl)-2-imino-6-(methoxymethyl)-3-methylhexahydro-1H-pyrano[3,4-d]pyrimidin-4(4aH)-one], the Ki in assay [1] was 0.00884 µM; in assay [2], 0.021 µM.

For `CN1C(=N)N[C@@]2(c3cc(Oc4cc(-n5cccn5)ncn4)ccc3F)CO[C@@H](C3CC3)C[C@H]2C1=O` [Example 13, (4aR,6R,8aS)-8a-(5-((6-(1H-pyrazol-1-yl)pyrimidin-4-yl)oxy)-2-fluorophenyl)-6-cyclopropyl-2-imino-3-methylhexahydro-1H-pyrano[3,4-d]pyrimidin-4(4aH)-one], the Ki in assay [1] was 0.023 µM; in assay [2], 0.052 µM.

Take `Cc1nccnc1Oc1ccc(F)c([C@]23CO[C@@H](C)C[C@H]2C(=O)N(C)C(=N)N3)c1` [Example 70, (4aR,6S,8aS)-8a-(2-fluoro-5-((3-methylpyrazin-2-yl)oxy)phenyl)-2-imino-3,6-dimethylhexahydro-1H-pyrano[3,4-d]pyrimidin-4(4aH)-one]: the Ki is 0.235 µM in assay [1] and 0.402 µM in assay [2].

For the molecule `COc1cncc(Oc2ccc(F)c([C@]34CO[C@@H](C5CC5)C[C@H]3C(=O)N(C)C(=N)N4)c2)n1` [Example 42, (4aR,6R,8aS)-6-cyclopropyl-8a-(2-fluoro-5-((6-methoxypyrazin-2-yl)oxy)phenyl)-2-imino-3-methylhexahydro-1H-pyrano[3,4-d]pyrimidin-4(4aH)-one], the Ki was 0.051 µM in assay [1] and 0.007 µM in assay [2].

On to `C[C@H]1C[C@H]2C(=O)N(C)C(=N)N[C@@]2(c2cc(Oc3ncncc3F)ccc2F)CO1` [Example 69, (4aR,6S,8aS)-8a-(2-fluoro-5-((5-fluoropyrimidin-4-yl)oxy)phenyl)-2-imino-3,6-dimethylhexahydro-1H-pyrano[3,4-d]pyrimidin-4(4aH)-one], for which the Ki in assay [1] was 0.00678 µM; in assay [2] it was 0.011 µM.

Take `C[C@H]1C[C@H]2C(=O)N(C)C(=N)N[C@@]2(c2cc(Oc3ccncc3F)ccc2F)CO1` [Example 74, (4aR,6S,8aS)-8a-(2-fluoro-5-((3-fluoropyridin-4-yl)oxy)phenyl)-2-imino-3,6-dimethylhexahydro-1H-pyrano[3,4-d]pyrimidin-4(4aH)-one]: the Ki in assay [1] was 0.0315 µM; in assay [2] it was 0.0443 µM.

Regarding `CN1C(=N)N[C@@]2(c3cc(-c4cncnc4)ccc3F)CO[C@@H](C3CC3)C[C@H]2C1=O` [Example 28, (4aR,6R,8aS)-6-cyclopropyl-8a-(2-fluoro-5-(pyrimidin-5-yl)phenyl)-2-imino-3-methylhexahydro-1H-pyrano[3,4-d]pyrimidin-4(4aH)-one], the Ki is 0.627 µM in assay [1] and 0.136 µM in assay [2].

On to `CN1C(=N)N[C@@]2(c3cc(Oc4ncccn4)ccc3F)CO[C@@H](C3CC3)C[C@H]2C1=O` [Example 43, (4aR,6R,8aS)-6-cyclopropyl-8a-(2-fluoro-5-(pyrimidin-2-yloxy)phenyl)-2-imino-3-methylhexahydro-1H-pyrano[3,4-d]pyrimidin-4(4aH)-one], for which the Ki in assay [1] was 0.191 µM; in assay [2], 0.052 µM.

For the molecule `CN1C(=N)N[C@@]2(c3cc(Oc4ccnnc4)ccc3F)CO[C@@H](C3CC3)C[C@H]2C1=O` [Example 41, (4aR,6R,8aS)-6-cyclopropyl-8a-(2-fluoro-5-(pyridazin-4-yloxy)phenyl)-2-imino-3-methylhexahydro-1H-pyrano[3,4-d]pyrimidin-4(4aH)-one], the Ki in assay [1] was 0.065 µM; in assay [2], 0.106 µM.

With `C[C@H]1C[C@H]2C(=O)N(C)C(=N)N[C@@]2(c2cc(OCC34CC(C#N)(C3)C4)ccc2F)CO1` [Example 26, 3-((4-fluoro-3-((4aR,6S,8aS)-2-imino-3,6-dimethyl-4-oxohexahydro-1H-pyrano[3,4-d]pyrimidin-8a(8H)-yl)phenoxy)methyl)bicyclo[1.1.1]pentane-1-carbonitrile], the values for the Ki in assay [1] and in assay [2] were 0.098 µM and 0.008 µM, respectively.

With `C[C@H]1C[C@H]2C(=O)N(C)C(=N)N[C@@]2(c2cc(Oc3cc(F)ccc3F)ccc2F)CO1` [Example 82, (4aR,6S,8aS)-8a-(5-(2,5-difluorophenoxy)-2-fluorophenyl)-2-imino-3,6-dimethylhexahydro-1H-pyrano[3,4-d]pyrimidin-4(4aH)-one], the Ki in assay [1] was 0.0235 µM; in assay [2], 0.0457 µM.

Consider `COC[C@H]1C[C@H]2C(=O)N(C)C(=N)N[C@@]2(c2cc(Oc3ncccc3F)ccc2F)CO1` [Example 31, (4aR,6R,8aS)-8a-(2-fluoro-5-((3-fluoropyridin-2-yl)oxy)phenyl)-2-imino-6-(methoxymethyl)-3-methylhexahydro-1H-pyrano[3,4-d]pyrimidin-4(4aH)-one], for which the Ki in assay [1] was 0.008 µM; in assay [2], 0.004 µM.

Take `COC(=O)[C@@H]1C[C@H]2C(=O)N(C)C(=N)N[C@@]2(c2ccc(F)cc2F)CO1` [Example 48, methyl (4aR,6S,8aS)-8a-(2,4-difluorophenyl)-2-imino-3-methyl-4-oxooctahydro-1H-pyrano[3,4-d]pyrimidine-6-carboxylate]: the figures for the Ki in assay [1] and in assay [2] were 1.39 µM and 1.11 µM, respectively.

Turning to `CN1C(=N)N[C@@]2(c3cc(Br)ccc3F)CO[C@@H](c3ccc(F)cc3)C[C@H]2C1=O` [Example 83, (4aR,6R,8aS)-8a-(5-bromo-2-fluorophenyl)-6-(4-fluorophenyl)-2-imino-3-methylhexahydro-1H-pyrano[3,4-d]pyrimidin-4(4aH)-one], the figures for the Ki in assay [1] and in assay [2] were 0.0242 µM and 0.0605 µM, respectively.

Consider `C[C@H]1C[C@H]2C(=O)N(C)C(=N)N[C@@]2(c2cc(OCC3CC3)ncc2F)CO1` [Example 92, (4aR,6S,8aS)-8a-(2-(cyclopropylmethoxy)-5-fluoropyridin-4-yl)-2-imino-3,6-dimethylhexahydro-1H-pyrano[3,4-d]pyrimidin-4(4aH)-one], for which the Ki in assay [1] is 0.00219 µM; in assay [2], 0.0111 µM.

As for `COc1ccnc(Oc2ccc(F)c([C@]34CO[C@@H](C)C[C@H]3C(=O)N(C)C(=N)N4)c2)c1` [Example 71, (4aR,6S,8aS)-8a-(2-fluoro-5-((4-methoxypyridin-2-yl)oxy)phenyl)-2-imino-3,6-dimethylhexahydro-1H-pyrano[3,4-d]pyrimidin-4(4aH)-one], the Ki is 0.015 µM in assay [1] and 0.0399 µM in assay [2].

For the molecule `CN1C(=N)N[C@@]2(c3cc(Oc4cccc(C#N)c4)ccc3F)CO[C@@H](C3CC3)C[C@H]2C1=O` [Example 25, 3-(3-((4aR,6R,8aS)-6-cyclopropyl-2-imino-3-methyl-4-oxohexahydro-1H-pyrano[3,4-d]pyrimidin-8a(8H)-yl)-4-fluorophenoxy)benzonitrile], the Ki in assay [1] was 0.046 µM; in assay [2], 0.027 µM.

In the case of `CN1C(=N)N[C@@]2(c3cc(Oc4cccc(-n5cccn5)n4)ccc3F)CO[C@@H](C3CC3)C[C@H]2C1=O` [Example 34, (4aR,6R,8aS)-8a-(5-((6-(1H-pyrazol-1-yl)pyridin-2-yl)oxy)-2-fluorophenyl)-6-cyclopropyl-2-imino-3-methylhexahydro-1H-pyrano[3,4-d]pyrimidin-4(4aH)-one], the values for the Ki in assay [1] and in assay [2] were 0.0135 µM and 0.0022 µM, respectively.

Turning to `C[C@H]1C[C@H]2C(=O)N(C)C(=N)N[C@@]2(c2cc(Oc3cnccn3)ccc2F)CO1` [Example 66, (4aR,6S,8aS)-8a-(2-fluoro-5-(pyrazin-2-yloxy)phenyl)-2-imino-3,6-dimethylhexahydro-1H-pyrano[3,4-d]pyrimidin-4(4aH)-one], the figures for the Ki in assay [1] and in assay [2] were 0.0303 µM and 0.0118 µM, respectively.

Take `C[C@H]1C[C@H]2C(=O)N(C)C(=N)N[C@@]2(c2cc(Oc3ccc(F)cn3)ccc2F)CO1` [Example 68, (4aR,6S,8aS)-8a-(2-fluoro-5-((5-fluoropyridin-2-yl)oxy)phenyl)-2-imino-3,6-dimethylhexahydro-1H-pyrano[3,4-d]pyrimidin-4(4aH)-one]: the Ki is 0.0713 µM in assay [1] and 0.157 µM in assay [2].

For `CN1C(=N)N[C@@]2(c3ccc(F)cc3F)CO[C@@H](C(F)F)C[C@H]2C1=O` [Example 7, (4aR,6R,8aS)-6-(difluoromethyl)-8a-(2,4-difluorophenyl)-2-imino-3-methylhexahydro-1H-pyrano[3,4-d]pyrimidin-4(4aH)-one], the Ki is 0.254 µM in assay [1] and 0.312 µM in assay [2].

Take `CN1C(=N)N[C@@]2(c3cc(Oc4cnccn4)ccc3F)CO[C@@H](C3CC3)C[C@H]2C1=O` [Example 39, (4aR,6R,8aS)-6-cyclopropyl-8a-(2-fluoro-5-(pyrazin-2-yloxy)phenyl)-2-imino-3-methylhexahydro-1H-pyrano[3,4-d]pyrimidin-4(4aH)-one]: the Ki in assay [1] was 0.073 µM; in assay [2], 0.013 µM.

`CN1C(=N)N[C@@]2(c3cc(Oc4ccnc(C(F)F)c4)ccc3F)CO[C@@H](C3CC3)C[C@H]2C1=O` [Example 20]: the Ki in assay [1] was 0.228 µM; in assay [2], 0.06 µM.

`CN1C(=N)N[C@@]2(c3cc(OCC(F)F)ccc3F)CO[C@@H](C3CC3)C[C@H]2C1=O` [Example 46, (4aR,6R,8aS)-6-cyclopropyl-8a-(5-(2,2-difluoroethoxy)-2-fluorophenyl)-2-imino-3-methylhexahydro-1H-pyrano[3,4-d]pyrimidin-4(4aH)-one]: the Ki in assay [1] is 0.041 µM; in assay [2], 0.04 µM.
